The results in this text go back to paper PMC8691750, “Euphorbia Factor L2 ameliorates the Progression of K/BxN Serum-Induced Arthritis by Blocking TLR7 Mediated IRAK4/IKKβ/IRF5 and NF-kB Signaling Pathways” (Frontiers in Pharmacology, 2021).

This data set can be described thus: In vivo pharmacokinetic study, plasma UPLC-MS. Set-up: species or system C57BL/6 mice. As to conditions: for Cmax: 40 mg/kg. As for the experimental part: Prior to the pharmacokinetic study, 12 male C57BL/6 mice were fasted for 12 h with free access to water, and then treated by intraperitoneal injection of EFL2 at a dose of 40 mg/kg. About 50 μL blood samples were collected via the oculi chorioideae vein at 0.5, 1, 2, 4, 8, 12, 24, 72, 96, and 168 h, respectively. After centrifugation at 5,000 rpm for 10 min, plasma samples were obtained and frozen at −80°C until analysis. The pharmacokinetic parameters of EFL2 were calculated using WinNolin 4.0.1 software.
20 μL plasma samples were spiked with 340 μL acetonitrile by vortex mixing for 30 s. The mixture was then centrifuged at 10,000 rpm for 5 min at 4°C to separate the precipitated protein. An aliquot of 50 μL supernatant was transferred to a fresh tube and spiked with 450 μL mobile phase (acetonitrile containing 0.1% formic acid). After centrifugation at 13,000 rpm for 5 min, 3 μL supernatant was injected into Agilent 6,495 Triple Quadrupole LC/MS/MS system for each time. Then, the concentration of EFL2 was determined.
An Agilent 1,200 series UPLC system (Agilent Technologies, Waldbronn, Germany) equipped with an 6,495 quadruple mass spectrometer (Agilent Technologies, Santa Clara, CA, United States) were used for pharmacokinetic study. The separation was carried out with Waters Acquity UPLC BEH C18 column (2.1 × 50 mm, 1.7 μm) at a constant temperature of 30 °C. The mobile phase was composed of aqueous solution (0.1% formic acid, A) and acetonitrile (containing 0.1% formic acid, B) and the program of the mobile phase was as follows: 0 min, 40% B; 1 min, 40% B; 1.5 min, 80% B; 2.5 min, 90% B; 4 min, 90% B; 4.1 min, 40% B; 6 min, 40% B, at a flow rate of 0.3 ml/min. The mass spectra were acquired using a triple quadrupole mass spectrometer with ESI ion source in positive mode. The ionization conditions were as follows: drying gas temperature (N2), 300°C; gas flow, 11 L/min (N2); nebulizer pressure, 35 psi (N2). An Agilent Mass Hunter workstation was used for data processing.

The mark [1] stands for this setting: male, C57BL/6, mouse, ip, mice, 40 mg/kg intraperitoneal injection, plasma.

Turning to `C=C1C(OC(=O)c2ccccc2)CC2C(C=C(C)C(=O)C3(OC(C)=O)CC(C)C(OC(=O)c4ccccc4)C3C1OC(C)=O)C2(C)C` (stereo not drawn) [EFL2, Euphorbia factor L2], the “peak concentration in sera” value (based on Cmax and molecular weight (MW = 642.6)) was determined as 7.03 µM. Under setting [1], the AUC(0-inf) turned out to be 379 ± 166 µg·h/mL, the exposure AUC(0-t) came to 374 ± 164 µg·h/mL, the Tmax turned out to be 2.5 ± 1.73 h and the half-life is 21.2 ± 7.11 h. Further, for the setting “male, C57BL/6, mouse, ip, mice, 40 mg/kg intraperitoneal injection, plasma, read-out: MRT0-t”, the MRT last is 59.2 ± 2.75 h. Further, the MRT inf (male, C57BL/6, mouse, ip, mice, 40 mg/kg intraperitoneal injection, plasma, read-out: MRT0-∞) worked out at 61.4 ± 3.7 h. This compound also showed a Cmax (male, C57BL/6, mouse, plasma, ip, mice, 40 mg/kg i.p.) of 4520 ± 1630 ng/mL. The same compound gave a Cmax (male, C57BL/6, mouse, plasma, ip, mice, 40 mg/kg intraperitoneal injection) of 4530 ng/mL.
